From ChEMBL document CHEMBL3124919, “Design, synthesis and biological evaluation of 3-[4-(7-chloro-quinolin-4-yl)-piperazin-1-yl]-propionic acid hydrazones as antiprotozoal agents” (Eur J Med Chem, 2014)
Calls of active or inactive are those of the source. The rule behind the calls is not given here.

Legend:
[1] = tested on: Plasmodium falciparum; experiment: Antimicrobial activity against erythrocytic stage of chloroquine-resistant Plasmodium falciparum W2 infected in human erythrocytes assessed as [3H]hypoxanthine incorporation at 1 ug/ml after 24 hrs by beta-radiation counting analysis; assay type: functional
[2] = Cytotoxicity against BALB/c mouse splenocytes assessed as [3H]-thymidine incorporation after 24 hrs by beta-radiation counting analysis relative to control; assay type: cell-based; details: Splenocyte
[3] = tested on: Entamoeba histolytica; experiment: Antiprotozoal activity against Entamoeba histolytica HM-1:IMSS trophozoites after 72 hrs by microdilution method; assay type: functional, organism-based
[4] = tested on: Plasmodium falciparum; experiment: Antimicrobial activity against erythrocytic stage of chloroquine-resistant Plasmodium falciparum W2 infected in human erythrocytes assessed as [3H]hypoxanthine incorporation after 24 hrs by beta-radiation counting analysis; assay type: functional, organism-based
[5] = Selectivity index, ratio of IC50 for BALB/c mouse splenocytes to IC50 for Entamoeba histolytica HM-1:IMSS trophozoites
[6] = tested on: Entamoeba histolytica; experiment: Ratio of metronidazole IC50 to compound IC50 for Entamoeba histolytica HM-1:IMSS trophozoites; assay type: functional
[7] = Inhibition of beta-hematin formation at 2.5 mM after 24 hrs by spectrophotometry; assay type: physicochemical; details: 2500 µM
[8] = Cytotoxicity against human erythrocytes assessed as hemolysis at 25 uM after 1 hr by spectrophotometry; assay type: cell-based; details: erythrocyte
[9] = tested on: Plasmodium falciparum; experiment: Antimicrobial activity against ring stage chloroquine-resistant Plasmodium falciparum W2 infected in human erythrocytes assessed as inhibition of schizont stage parasite growth at 0.5 to 1 uM after 48 hrs by light microscopy; assay type: functional, organism-based
[10] = Plasmodium falciparum, W2, read-out: IC50

Row | Structure (SMILES) | inhibition at 1 µg/mL [1] [%] | IC50 [2] [µM] | IC50 [3] [µM] | IC50 [4, 10] [µM] | other results
1 | O=C(CCN1CCN(c2ccnc3cc(Cl)ccc23)CC1)N/N=C/c1cccc(Cl)c1 | 97.3 | > 100 | 7.7 |  | 
2 | O=C(CCN1CCN(c2ccnc3cc(Cl)ccc23)CC1)N/N=C/c1cc(Br)c(O)c(Br)c1 | 28 |  | 6.6 |  | IC50 [4]: Not Active
3 | CC(C)Oc1ccc(/C=N/NC(=O)CCN2CCN(c3ccnc4cc(Cl)ccc34)CC2)cc1 | 98 | 3.6 | 5.3 | 0.8 | 
4 | O=C(CCN1CCN(c2ccnc3cc(Cl)ccc23)CC1)N/N=C/c1ccc(O)cc1 | 80.6 |  | > 100 |  | 
5 | COc1ccc(/C=N/NC(=O)CCN2CCN(c3ccnc4cc(Cl)ccc34)CC2)cc1OC | 98.4 |  | 11.6 |  | 
6 | Cc1ccc(/C=N/NC(=O)CCN2CCN(c3ccnc4cc(Cl)ccc34)CC2)cc1 | 81.4 |  | 8.1 |  | 
7 | O[C@@H](c1cc(C(F)(F)F)nc2c(C(F)(F)F)cccc12)[C@H]1CCCCN1 (relative stereo) [(S,R)-MEFLOQUINE] |  | 9.5 |  | 0.04 | 
8 | COc1cc(/C=N/NC(=O)CCN2CCN(c3ccnc4cc(Cl)ccc34)CC2)ccc1OC(C)=O | 0 | 15.8 | 0.13 |  | Ratio IC50 [5]: 121; Ratio IC50 [6]: 10
9 | O=C(CCN1CCN(c2ccnc3cc(Cl)ccc23)CC1)N/N=C/c1ccccc1O | 98.9 | 11.5 | 25.6 | 0.33 | inhibition (INH) [7]: 83.2%; Activity [8]: Non-toxic; Activity [9]: Active
10 | COc1cc(/C=N/NC(=O)CCN2CCN(c3ccnc4cc(Cl)ccc34)CC2)ccc1OC(C)C | 98.6 | 8.8 | 15.5 | 4.5 | inhibition (INH) [7]: 15.7%; Activity [8]: Non-toxic
11 | Cc1ncc([N+](=O)[O-])n1CCO [METRONIDAZOLE] |  | 5.4 | 1.5 |  | 
12 | COc1cc(/C=N/NC(=O)CCN2CCN(c3ccnc4cc(Cl)ccc34)CC2)c(Br)c(OC)c1OC | 42.9 | 9.6 | 3.7 |  | IC50 [4]: Not Active
13 | O=C(CCN1CCN(c2ccnc3cc(Cl)ccc23)CC1)N/N=C/c1ccccc1 | 93.3 | 0.3 | 6.6 | 0.2 | 
14 | O=C(CCN1CCN(c2ccnc3cc(Cl)ccc23)CC1)N/N=C/c1ccccc1Cl | 97.9 | 10.8 | 12.3 | 0.78 | inhibition (INH) [7]: 87.3%; Activity [8]: Non-toxic
15 | CCN(CC)CCCC(C)Nc1ccnc2cc(Cl)ccc12 (configuration not stated) [CHLOROQUINE] |  |  |  |  | inhibition (INH) [7]: 87.1%
16 | O=C(CCN1CCN(c2ccnc3cc(Cl)ccc23)CC1)N/N=C/c1ccccn1 | 0 |  | > 100 |  | 
17 | O=C(CCN1CCN(c2ccnc3cc(Cl)ccc23)CC1)N/N=C/c1ccc([N+](=O)[O-])cc1 | 38.4 | 12.1 | 0.95 |  | 
18 | COc1ccc(OC)c(/C=N/NC(=O)CCN2CCN(c3ccnc4cc(Cl)ccc34)CC2)c1 | 37.4 |  | 8.2 |  | 

Row | Structure (SMILES) | inhibition at 1 µg/mL [1] [%] | IC50 [2] [µM] | IC50 [3] [µM] | IC50 [4, 10] [µM] | other results
19 | O=C(CCN1CCN(c2ccnc3cc(Cl)ccc23)CC1)N/N=C/c1ccc(Cl)cc1 | 98.4 | 0.2 | 87.2 | 1.4 | 
20 | CCOC(OCC)c1ccc(/C=N/NC(=O)CCN2CCN(c3ccnc4cc(Cl)ccc34)CC2)cc1 | 71.7 |  | > 100 |  | 
21 | O=C(CCN1CCN(c2ccnc3cc(Cl)ccc23)CC1)N/N=C/c1ccc2c(c1)OCO2 | 27.8 |  | > 100 |  | 
22 | CC(C)c1ccc(/C=N/NC(=O)CCN2CCN(c3ccnc4cc(Cl)ccc34)CC2)cc1 | 97.5 | 7.9 | 17.1 | 1.7 | inhibition (INH) [7]: 94%; Activity [8]: Non-toxic
23 | O=C(CCN1CCN(c2ccnc3cc(Cl)ccc23)CC1)N/N=C/c1c[nH]c2ccccc12 | 81.5 | 5.7 | 9.6 | 3.3 | inhibition (INH) [7]: 43.3%; Activity [8]: Non-toxic
24 | O=C(CCN1CCN(c2ccnc3cc(Cl)ccc23)CC1)N/N=C/c1ccccc1C(F)(F)F | 59.6 |  | 8.1 |  | 
25 | CCOc1ccccc1/C=N/NC(=O)CCN1CCN(c2ccnc3cc(Cl)ccc23)CC1 | 28.1 |  | > 100 |  | 
26 | CCOC(=O)COc1ccc(/C=N/NC(=O)CCN2CCN(c3ccnc4cc(Cl)ccc34)CC2)cc1OC | 71.7 |  | > 100 |  | 
27 | CN(C)c1ccc(/C=N/NC(=O)CCN2CCN(c3ccnc4cc(Cl)ccc34)CC2)cc1 | 98 | > 100 | 15.2 | 1.3 | inhibition (INH) [7]: 94.2%; Activity [8]: Non-toxic
28 | O=C(CCN1CCN(c2ccnc3cc(Cl)ccc23)CC1)N/N=C/c1ccccc1[N+](=O)[O-] | 73.1 |  | 11.3 |  | 
29 | COc1cc(/C=N/NC(=O)CCN2CCN(c3ccnc4cc(Cl)ccc34)CC2)cc(Br)c1O | 41.5 |  | 20.5 |  | IC50 [4]: Not Active
30 | COc1cc(/C=N/NC(=O)CCN2CCN(c3ccnc4cc(Cl)ccc34)CC2)cc(OC)c1OC | 47.4 |  | 12.4 |  | 
31 | NNC(=O)CCN1CCN(c2ccnc3cc(Cl)ccc23)CC1 | 74.1 | > 100 |  | 41.7 | inhibition (INH) [7]: 21.7%
32 | O=C(CCN1CCN(c2ccnc3cc(Cl)ccc23)CC1)N/N=C/c1cccc([N+](=O)[O-])c1 | 19.9 |  | 12.6 |  | 
33 | CCc1ccc(/C=N/NC(=O)CCN2CCN(c3ccnc4cc(Cl)ccc34)CC2)cc1 | 97.8 |  | 11.1 |  | 
34 | COc1ccc(/C=N/NC(=O)CCN2CCN(c3ccnc4cc(Cl)ccc34)CC2)cc1 | 43 |  | 19.7 |  | 
35 | CCOc1ccc(/C=N/NC(=O)CCN2CCN(c3ccnc4cc(Cl)ccc34)CC2)cc1 | 14.9 |  | 12 |  | 
36 | COc1cc(/C=N/NC(=O)CCN2CCN(c3ccnc4cc(Cl)ccc34)CC2)ccc1O | 99.1 | 9.4 | 21.3 | 2.1 | inhibition (INH) [7]: 50.7%; Activity [8]: Non-toxic
